Assay results taken from patent publication US8974830B2, “Particles and contrast agent including the same for optical imaging” (Canon Kabushiki Kaisha, priority 2012, dated 2015).

Assay: Accumulation rate in popliteal lymph nodes after subcutaneous plantar administration
Assay type: in vivo, mouse
Details: 24 hours after subcutaneous plantar administration, 13 nmol dye
Method: PNP10 prepared in EXAMPLE 10 was administered subcutaneously into the plantar surface of a mouse. Extirpation was performed 24 hours after administration. After homogenization, extraction was performed with an organic solvent to measure the accumulation rate in the popliteal lymph nodes. The amount administered was 13 nmol in terms of the amount of the dye. As a comparative example, an aqueous solution of ICG was also administered, and the accumulation rate was measured. The accumulation rate of PNP10 in the lymph nodes was about 80 times higher than that of ICG.

Accumulation rate in lymph node (% ID): 0.1 % ID
SMILES: CC1(C)C(/C=C/C=C/C=C/C=C2\N(CCCCS(=O)(=O)O)c3ccc4ccccc4c3C2(C)C)=[N+](CCCCS(=O)(=O)[O-])c2ccc3ccccc3c21 [ICG, Indocyanine green]
